| melting point [°C] | Compound |
| --- | --- |
| 165 to 167 | Cc1noc(C)c1-c1ccccc1C=NC(c1ccccc1)c1ccccc1 |
| 164 to 166 | CC(C)C(NS(=O)(=O)c1ccc(-c2ccccc2)cc1)C(=O)O (centres undefined) |
| 356 to 358 | COc1cc2[nH]c(=O)[nH]c(=O)c2cc1Cl |
| 177 to 179 | CCCCn1c(=O)c2c(N(C)C)n[nH]c2n(Cc2ccccc2)c1=O |
| 151 to 158 | COc1ccc2[nH]cc(CCCN(C3CCC3)C3COc4c(F)ccc(C(N)=O)c4C3)c2c1 (centres undefined) |
| 133 to 135 | Nc1c(Cl)cc(CC(=O)c2ccccc2)c2c1OCCO2 |
| 88 to 89 | CC(C)(C)c1cc(C(=O)CI)cc(C(C)(C)C)c1O |
| 159 to 161 | CCCN(c1ccncc1)N1C(=O)C2(Cc3ccccc3C2)c2ccccc21 |
| 201 to 204 | N#Cc1nc(-c2ccccc2)c(-c2ccccc2)nc1Cl |
| 255 to 256 | CC(C)OC(=O)C1=C(c2cccc([N+](=O)[O-])c2)N2C(=O)N(C)NC2=NC1C (centres undefined) |
| 124 to 125 | CCOP(=O)(/C=C/c1nc(-c2ccccc2)oc1COc1ccc(OCc2nc(-c3ccccc3)oc2C)cc1)OCC |
| 145 to 146 | C[C@@H]1O[C@](C#CC2CC2)(C(F)(F)F)c2cc(Cl)ccc2NC1=O |
| 123 to 125 | CC1(C)Nc2cc(F)c(F)cc2-n2cccc21 |
| 188 to 189 | COC(=O)c1ccccc1-c1ncccc1N |
| 164 to 167 | Cc1nc[nH]c1CSCCN=C(NC#N)NCCN |
| 86 | COc1cc(Cc2cnc(N)nc2N)cc(-c2ccc(CO)cc2)c1OC |
| 107 to 110 | CN(c1cc(OCCCS(C)(=O)=O)cc2cc(C3=NCC(CN4CCS(=O)CC4)S3)[nH]c12)S(=O)(=O)c1ccccn1 (centres undefined) |
| 156 to 157 | CC(C)C(C)C=CC(C)C1CCC2C3=CC=C4CC(O)C=CC4(C)C3CCC21C (centres undefined) |
| 56 to 57 | CCOC(=O)C(=O)N(CCBr)N=Cc1ccccc1 |
| 61 to 63 | O=C(O)C(F)Oc1ccccc1 (centres undefined) |
| 98 to 100 | CS(=O)(=O)c1ccc(-c2cc(C(F)F)cn2-c2ccc(F)cc2)cc1 |
| 178 to 180 | O=S1(=O)NCN(C2CCCCC2)c2cc(Cl)ccc21 |
| 114 to 118 | CN(C1=NC(=O)C(=O)S1)c1ccc(-c2ncn(-c3ccc(OC(F)(F)F)cc3)n2)cc1 |
| 191 | Cc1c(-c2ccc3c(c2)N(C)C(=O)CS3)nc2ccccn12 |
| 155 to 157 | CN(Cc1ncco1)C1CCCN(C(=O)c2ccc(Nc3nccc(Nc4ccc(F)cc4)n3)cc2)C1 (centres undefined) |

| melting point [°C] | Compound |
| --- | --- |
| 54 to 55 | Clc1ccc2c(c1)CSCCCN2 |
| 138 to 139 | OCc1cn(-c2ccc(C(F)(F)F)cn2)nc1C1CCCCC1 |
| 138 to 140 | CN1CCN(c2ccccc2C=C2CCCN(c3ccc(Cl)c(Cl)c3)C2=O)CC1 |
| 126 to 127 | CCCN(CCC)[C@H]1Cc2c[nH]c3ccc(-c4ccno4)c(c23)C1 |
| 190 | CC(C)Cc1nc2sc3c(NCCN4CCOCC4)ncnc3c2c2c1CCC(C)(C)C2 |
| 88 to 90 | CC1c2cccc3c2N(CC3)c2ccccc2N1C(=O)CCCCl (centres undefined) |
| 127 to 129 | Cc1cc(Br)ccc1N=CN(C)SN(C)C=Nc1ccc(Br)cc1C |
| > 300 | OCc1cnc2c(Cl)cccc2c1O |
| 146 | Nc1ccccc1C(O)c1cc(C(F)(F)F)nc2c(C(F)(F)F)cccc12 (centres undefined) |
| 182 to 183 | O=C(CN1C(=O)C(c2ccccc2)c2ccccc21)NCc1ccccc1 (centres undefined) |
| 78 to 80 | COc1cc(/C=C/C(=O)CC(=O)C2(C)CC2)ccc1O |
| > 250 | CN1Cc2c(C(N)=O)ncn2-c2sccc2C1=O |
| 98 to 100 | COc1ccc(/C=C/C(=O)C#CC(=O)O)cc1 |
| 208 to 210 | O=C1Nc2ccccc2C1=Cc1cccs1 |
| 73 to 74 | CCc1c(Cc2ccccc2)[nH]c(=O)[nH]c1=O |
| 123 to 126 | O=C1CCC2CCCCC2N1 (centres undefined) |
| 173 to 176 | CCOC(=O)Oc1ccc(/C=C/C(=O)O)cc1 |
| 80 to 81 | CC(C)(C)[Si](C)(C)Oc1cccc2[nH]ccc12 |
| 170 to 176 | O=C(Nc1ccc(-n2nc(C3CC3)cc2C2CC2)cc1)c1ccc2nc[nH]c2c1 |
| 128 to 129 | CCC(CC)(CC(=O)Nc1cccc(OCc2ccc3cccc(F)c3n2)c1)C(=O)O |
| 194 to 195 | O=C(O)Cn1c(=O)n(S(=O)(=O)c2ccc(Cl)cc2)c(=O)c2ccc(Cl)cc21 |
| 130 to 140 | CC(=O)NNc1ccc(N)cc1 |
| 209 to 210 | Cc1scc2c1N(C(=O)N1CCC(CCCCN3CCCCC3)CC1)c1ccccc1NC2=O |
| 259 to 261 | Oc1ncc(-c2cccc(F)c2)cn1 |
| 66 to 67 | N#Cc1cccc2c1NCC2 |

| melting point [°C] | Compound |
| --- | --- |
| 215 to 216 | CN1CCN(C2=Nc3cc(Br)ccc3N3CCc4cc(Br)cc2c43)CC1 |
| 93 to 96 | O=C1CC(S(=O)Cc2ccccc2)N1CCCc1ccccc1 (centres undefined) |
| 99 | COc1ccc([C@@H]2CCc3cc(OC)ccc3[C@@H]2CCCO)cc1 (relative stereo) |
| 285 to 286 | COc1cccc(CNC(=O)c2nc3scc(CNC(=O)c4ccc(C(=O)O)cc4)c3c(=O)[nH]2)c1 |
| 164 to 166 | CCCn1c(=O)c2c(NC)n(C(=O)OC)nc2n(Cc2cccc(Cl)c2)c1=O |
| 80 to 82 | CC(=O)c1ccc(NS(=O)(=O)N(C)C)c(Oc2ccc(F)cc2F)c1 |
| 125 to 126 | CS(=O)(=O)c1ccc(Oc2ccc(Br)cc2)nc1 |
| 280 to 282 | Cc1[nH]c(=O)ccc1C(=O)c1ccc(O)cc1 |
| > 260 | CCOC(=O)c1cnc2ccc(C)cc2c1O |
| 55 to 57 | Cc1ccc(S(=O)(=O)OCC2Cc3cc(Cl)cc(OS(=O)(=O)C(F)(F)F)c3O2)cc1 (centres undefined) |
| 224 to 226 | O=C(NCCc1ccccc1)Nc1ccc(CN2C(=O)[C@H]3CCC[C@H]3N(C(=O)CCl)c3ccccc32)cc1 (relative stereo) |
| 170 | O=C1c2ccccc2C(OCC2CO2)N1c1cccc(Cl)c1 (centres undefined) |
| 151 to 156 | O=C1C=C(N2CCCCC2)c2oc3ccccc3c2C1=O |
| 43 to 45 | c1ccc(CN2CCC3(Cc4ccccc4O3)C2)cc1 (centres undefined) |
| 87 to 89 | CCOC(=O)C1=C(C)NC(C)=C(C(=O)OCCN2CCN(C(c3ccccc3)c3ccccc3)CC2)C1c1cccc(Cl)c1Cl (centres undefined) |
| 154 to 157 | O=C(O)COc1cc(F)ccc1C(=S)NCc1ccc(Br)cc1F |
| 185 to 186 | C=C1N(c2ccc(Cl)cc2)C(=O)OC12CCN(C(=O)N1CCN(CCO)CC1)CC2 |
| 95 to 100 | CCOc1ccccc1N1CCN(Cc2nc3ccccc3[nH]2)CC1 |
| 131 to 133 | CC(C)NC1=NS(=O)(=O)c2ccc(C3CCCCC3)cc2N1 |
| 207 to 208 | Cc1nnc(-c2ccc3occ(-c4ccc(C=O)c(F)c4)c3c2)o1 |
| 132 | CSc1nc2ccccc2n2cc(-c3ccccc3)cc12 |
| 129 | CON(C)C(=O)c1cc(Br)cc([N+](=O)[O-])c1N |
| 117 to 118 | COC(=O)CCC(=O)c1ccc(-c2ccc(Cl)s2)cc1 |

| Compound | melting point [°C] |
| --- | --- |
| [N-]=[N+]=NS(=O)(=O)c1ccccc1[N+](=O)[O-] | 73 to 74 |

Reference: a melting point compilation (Tetko et al.; mined from patent text by program, amines drawn as free bases though some values may be those of a salt)
